Results reported in patent publication US20190119284A1, “ErbB Inhibitors and Uses Thereof” (The Regents of the University of California, priority 2016, published 2019).

Columns and labels:
Type in all cases: biochemical
Conditions in all cases: for inhibition at 1 µM: compound at 1 μM
[1] = target: PKC-ALPHA (Homo sapiens, UniProt P17252); assay: Nanosyn in vitro kinase profiling: PKC-ALPHA
Experimental: (§1) This was confirmed by in vitro profiling against a panel of kinases, with compound 2 only showing potent inhibition of EGFR and Ab1 (Table 2).
(§2) In vitro Kinome Screen. In vitro profiling of compound 2 at 100 nM was conducted by Nanosyn.

[2] = target: KDR (Homo sapiens, UniProt P35968); assay: Nanosyn in vitro kinase profiling: KDR
Sequence of KDR (P35968 20-1356): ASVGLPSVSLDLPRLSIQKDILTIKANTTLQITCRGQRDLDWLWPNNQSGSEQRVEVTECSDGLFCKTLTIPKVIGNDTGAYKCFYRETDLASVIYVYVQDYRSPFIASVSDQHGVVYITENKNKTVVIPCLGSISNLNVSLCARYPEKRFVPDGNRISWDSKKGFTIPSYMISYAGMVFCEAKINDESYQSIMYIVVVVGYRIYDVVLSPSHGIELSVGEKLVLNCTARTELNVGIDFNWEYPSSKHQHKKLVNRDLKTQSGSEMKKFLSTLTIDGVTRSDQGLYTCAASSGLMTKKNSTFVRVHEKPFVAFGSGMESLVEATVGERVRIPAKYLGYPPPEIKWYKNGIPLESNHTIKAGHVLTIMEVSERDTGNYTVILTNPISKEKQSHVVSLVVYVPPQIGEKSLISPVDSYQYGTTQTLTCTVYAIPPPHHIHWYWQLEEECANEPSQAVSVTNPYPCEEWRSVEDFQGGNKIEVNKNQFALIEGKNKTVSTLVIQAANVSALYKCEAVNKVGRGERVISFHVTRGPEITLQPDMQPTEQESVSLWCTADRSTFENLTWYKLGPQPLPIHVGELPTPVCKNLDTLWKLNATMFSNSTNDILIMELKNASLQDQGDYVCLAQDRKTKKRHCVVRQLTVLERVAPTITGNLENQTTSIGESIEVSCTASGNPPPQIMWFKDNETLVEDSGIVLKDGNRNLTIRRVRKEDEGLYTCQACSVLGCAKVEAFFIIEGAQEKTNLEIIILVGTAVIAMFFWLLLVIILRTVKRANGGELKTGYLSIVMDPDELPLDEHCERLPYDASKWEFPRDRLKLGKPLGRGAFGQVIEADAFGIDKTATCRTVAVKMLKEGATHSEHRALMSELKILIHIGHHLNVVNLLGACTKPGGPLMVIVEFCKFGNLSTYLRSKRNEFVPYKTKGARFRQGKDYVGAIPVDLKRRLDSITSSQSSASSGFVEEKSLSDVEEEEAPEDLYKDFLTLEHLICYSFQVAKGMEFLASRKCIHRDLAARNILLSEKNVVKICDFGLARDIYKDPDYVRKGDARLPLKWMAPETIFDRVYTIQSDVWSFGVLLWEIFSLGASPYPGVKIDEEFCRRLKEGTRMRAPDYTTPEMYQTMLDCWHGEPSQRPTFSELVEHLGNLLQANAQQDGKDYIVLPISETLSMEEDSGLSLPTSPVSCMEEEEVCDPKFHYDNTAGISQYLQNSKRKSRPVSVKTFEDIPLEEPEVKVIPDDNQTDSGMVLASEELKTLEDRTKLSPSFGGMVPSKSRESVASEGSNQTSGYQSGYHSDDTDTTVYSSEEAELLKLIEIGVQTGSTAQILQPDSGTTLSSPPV
Experimental: as §1, §2

[3] = target: T1, FLT-3 (Homo sapiens, UniProt P36888); assay: Nanosyn in vitro kinase profiling: FLT-3
T1 sequence (P36888 27-993): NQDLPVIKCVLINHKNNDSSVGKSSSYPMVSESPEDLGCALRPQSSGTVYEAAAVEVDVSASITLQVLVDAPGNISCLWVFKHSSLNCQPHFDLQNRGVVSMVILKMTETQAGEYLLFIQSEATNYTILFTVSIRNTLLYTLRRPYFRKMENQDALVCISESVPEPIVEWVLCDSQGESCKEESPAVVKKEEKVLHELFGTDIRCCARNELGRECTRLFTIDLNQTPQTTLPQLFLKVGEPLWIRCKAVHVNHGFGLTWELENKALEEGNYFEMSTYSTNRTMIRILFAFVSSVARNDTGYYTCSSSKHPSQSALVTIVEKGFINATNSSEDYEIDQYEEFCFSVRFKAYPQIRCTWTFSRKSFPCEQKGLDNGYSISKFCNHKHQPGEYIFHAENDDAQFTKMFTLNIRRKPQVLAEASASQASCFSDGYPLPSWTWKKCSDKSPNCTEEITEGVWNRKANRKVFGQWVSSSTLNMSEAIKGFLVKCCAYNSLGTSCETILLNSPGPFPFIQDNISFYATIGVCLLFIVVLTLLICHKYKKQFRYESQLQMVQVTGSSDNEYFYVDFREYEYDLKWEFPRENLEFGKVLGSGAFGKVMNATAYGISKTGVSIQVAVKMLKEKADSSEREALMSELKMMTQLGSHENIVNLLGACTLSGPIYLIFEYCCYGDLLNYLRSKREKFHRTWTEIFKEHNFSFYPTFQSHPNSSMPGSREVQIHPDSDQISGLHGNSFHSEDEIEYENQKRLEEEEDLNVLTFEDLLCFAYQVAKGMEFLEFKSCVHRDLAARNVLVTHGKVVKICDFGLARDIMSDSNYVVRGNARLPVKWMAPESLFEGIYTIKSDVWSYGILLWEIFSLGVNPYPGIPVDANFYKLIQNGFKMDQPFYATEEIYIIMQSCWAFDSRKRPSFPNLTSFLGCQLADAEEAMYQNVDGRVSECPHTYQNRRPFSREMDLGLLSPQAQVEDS
Experimental: as §1, §2

[4] = target: T2, AURORA-A (Homo sapiens, UniProt O14965); assay: Nanosyn in vitro kinase profiling: AURORA-A
T2 sequence (O14965 1-403): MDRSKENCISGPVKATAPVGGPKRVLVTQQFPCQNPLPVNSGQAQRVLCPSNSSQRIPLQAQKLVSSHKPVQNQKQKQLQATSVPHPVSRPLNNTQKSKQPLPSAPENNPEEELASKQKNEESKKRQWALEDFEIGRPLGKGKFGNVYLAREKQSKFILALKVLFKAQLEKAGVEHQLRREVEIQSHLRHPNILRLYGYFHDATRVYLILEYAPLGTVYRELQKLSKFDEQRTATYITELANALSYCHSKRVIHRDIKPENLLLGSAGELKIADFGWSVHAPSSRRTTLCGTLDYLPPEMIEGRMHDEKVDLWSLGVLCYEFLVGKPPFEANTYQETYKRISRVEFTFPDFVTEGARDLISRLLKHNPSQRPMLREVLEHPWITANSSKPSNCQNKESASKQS
Experimental: as §1, §2

[5] = target: PIM-1-KINASE (Homo sapiens, UniProt P11309); assay: Nanosyn in vitro kinase profiling: PIM-1-KINASE
Sequence of PIM-1-KINASE (P11309 whole entry): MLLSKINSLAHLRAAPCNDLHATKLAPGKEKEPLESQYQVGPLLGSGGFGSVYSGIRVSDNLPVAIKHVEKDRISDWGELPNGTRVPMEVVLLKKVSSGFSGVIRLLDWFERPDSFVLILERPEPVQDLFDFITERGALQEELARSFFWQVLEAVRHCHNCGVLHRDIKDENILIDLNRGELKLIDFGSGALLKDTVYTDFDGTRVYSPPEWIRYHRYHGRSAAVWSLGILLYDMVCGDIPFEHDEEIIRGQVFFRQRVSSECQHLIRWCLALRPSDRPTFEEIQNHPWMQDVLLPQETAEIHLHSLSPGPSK
Experimental: as §1, §2

[6] = target: LCK (Homo sapiens, UniProt P06239); assay: Nanosyn in vitro kinase profiling: LCK
Sequence of LCK (P06239 whole entry): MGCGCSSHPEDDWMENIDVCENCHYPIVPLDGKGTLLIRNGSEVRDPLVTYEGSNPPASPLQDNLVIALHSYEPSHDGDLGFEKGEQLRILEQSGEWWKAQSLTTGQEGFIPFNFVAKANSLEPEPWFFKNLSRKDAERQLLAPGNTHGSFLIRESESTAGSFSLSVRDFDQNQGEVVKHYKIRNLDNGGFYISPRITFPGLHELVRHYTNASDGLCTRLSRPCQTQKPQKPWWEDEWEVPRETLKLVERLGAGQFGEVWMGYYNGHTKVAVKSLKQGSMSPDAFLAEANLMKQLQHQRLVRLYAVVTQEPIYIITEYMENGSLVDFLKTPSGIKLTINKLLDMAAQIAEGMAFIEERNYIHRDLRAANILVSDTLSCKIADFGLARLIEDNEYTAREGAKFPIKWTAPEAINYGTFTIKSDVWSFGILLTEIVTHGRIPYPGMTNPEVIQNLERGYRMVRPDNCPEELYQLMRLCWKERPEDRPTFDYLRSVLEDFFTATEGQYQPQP
Experimental: as §1, §2

[7] = target: GSK-3-BETA (Homo sapiens, UniProt P49841); assay: Nanosyn in vitro kinase profiling: GSK-3-BETA
Sequence of GSK-3-BETA (P49841 whole entry): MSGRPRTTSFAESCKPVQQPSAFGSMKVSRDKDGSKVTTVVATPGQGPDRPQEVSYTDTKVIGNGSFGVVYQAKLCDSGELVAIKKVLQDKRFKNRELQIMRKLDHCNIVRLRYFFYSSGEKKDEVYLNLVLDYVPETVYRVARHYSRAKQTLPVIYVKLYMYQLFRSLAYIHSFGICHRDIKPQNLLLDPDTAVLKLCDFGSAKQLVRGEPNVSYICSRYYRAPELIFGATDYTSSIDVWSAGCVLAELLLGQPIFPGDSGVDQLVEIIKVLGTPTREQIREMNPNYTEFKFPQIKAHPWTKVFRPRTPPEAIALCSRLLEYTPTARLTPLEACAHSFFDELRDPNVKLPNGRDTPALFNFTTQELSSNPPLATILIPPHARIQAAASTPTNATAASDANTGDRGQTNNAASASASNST
Experimental: as §1, §2

[8] = target: CK1-EPSILON (Homo sapiens, UniProt P49674); assay: Nanosyn in vitro kinase profiling: CK1-EPSILON
Sequence of CK1-EPSILON (P49674 whole entry): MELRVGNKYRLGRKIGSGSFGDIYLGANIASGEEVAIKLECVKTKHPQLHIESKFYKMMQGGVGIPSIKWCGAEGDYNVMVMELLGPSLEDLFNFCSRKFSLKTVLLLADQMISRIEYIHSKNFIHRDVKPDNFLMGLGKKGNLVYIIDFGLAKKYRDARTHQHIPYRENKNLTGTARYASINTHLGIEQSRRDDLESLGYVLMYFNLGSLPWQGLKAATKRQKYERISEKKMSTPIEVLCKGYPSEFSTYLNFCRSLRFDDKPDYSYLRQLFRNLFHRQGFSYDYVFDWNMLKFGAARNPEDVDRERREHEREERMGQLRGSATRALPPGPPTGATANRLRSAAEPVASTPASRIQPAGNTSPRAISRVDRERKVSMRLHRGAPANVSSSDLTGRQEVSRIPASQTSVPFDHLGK
Experimental: as §1, §2

[9] = target: CSK (Homo sapiens, UniProt P41240); assay: Nanosyn in vitro kinase profiling: CSK
Experimental: as §1, §2

[10] = target: SRC (Homo sapiens, UniProt P12931); assay: Nanosyn in vitro kinase profiling: SRC
Experimental: as §1, §2

[11] = target: AMP-A1B1G1 (Homo sapiens, UniProt Q13131); assay: Nanosyn in vitro kinase profiling: AMP-A1B1G1
Sequence of AMP-A1B1G1 (Q13131 whole entry): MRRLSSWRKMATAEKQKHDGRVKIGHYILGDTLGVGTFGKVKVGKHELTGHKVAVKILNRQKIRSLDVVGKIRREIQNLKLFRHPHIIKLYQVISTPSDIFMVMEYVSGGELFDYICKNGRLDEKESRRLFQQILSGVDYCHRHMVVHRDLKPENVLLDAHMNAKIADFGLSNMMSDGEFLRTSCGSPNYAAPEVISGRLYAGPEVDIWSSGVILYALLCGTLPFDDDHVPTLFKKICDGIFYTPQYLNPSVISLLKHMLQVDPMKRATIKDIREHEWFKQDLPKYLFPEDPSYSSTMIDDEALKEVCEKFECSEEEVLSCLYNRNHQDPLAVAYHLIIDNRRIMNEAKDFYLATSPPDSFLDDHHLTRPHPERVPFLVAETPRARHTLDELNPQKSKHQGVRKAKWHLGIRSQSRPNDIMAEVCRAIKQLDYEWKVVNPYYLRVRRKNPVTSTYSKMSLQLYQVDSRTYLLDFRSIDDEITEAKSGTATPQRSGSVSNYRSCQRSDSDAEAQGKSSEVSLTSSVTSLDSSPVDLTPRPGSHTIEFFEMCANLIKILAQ
Sequence of AMP-A1B1G1 (Q9Y478 whole entry partner): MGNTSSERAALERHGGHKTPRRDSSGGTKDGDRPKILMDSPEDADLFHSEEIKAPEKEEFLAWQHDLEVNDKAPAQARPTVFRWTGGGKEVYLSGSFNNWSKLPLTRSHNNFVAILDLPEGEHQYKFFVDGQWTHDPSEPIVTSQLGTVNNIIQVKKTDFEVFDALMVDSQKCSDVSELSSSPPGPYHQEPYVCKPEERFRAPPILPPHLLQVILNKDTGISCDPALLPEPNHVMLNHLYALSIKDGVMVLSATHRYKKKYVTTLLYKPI
Sequence of AMP-A1B1G1 (P54619 whole entry partner): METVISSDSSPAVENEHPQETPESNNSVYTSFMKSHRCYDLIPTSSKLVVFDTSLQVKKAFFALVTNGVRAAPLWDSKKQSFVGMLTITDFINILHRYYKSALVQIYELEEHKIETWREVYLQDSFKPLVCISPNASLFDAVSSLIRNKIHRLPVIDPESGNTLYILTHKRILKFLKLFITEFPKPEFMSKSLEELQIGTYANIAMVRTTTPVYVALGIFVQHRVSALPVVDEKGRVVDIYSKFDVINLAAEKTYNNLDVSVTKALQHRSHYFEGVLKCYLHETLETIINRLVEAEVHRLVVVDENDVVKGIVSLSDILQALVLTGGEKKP
Experimental: as §1, §2

[12] = target: ABL1 (Homo sapiens, UniProt P00519); assay: Nanosyn in vitro kinase profiling: ABL1
Experimental: as §1, §2

[13] = target: T3, PDK1 (Homo sapiens, UniProt O15530); assay: Nanosyn in vitro kinase profiling: PDK1
T3 sequence (O15530 1-556): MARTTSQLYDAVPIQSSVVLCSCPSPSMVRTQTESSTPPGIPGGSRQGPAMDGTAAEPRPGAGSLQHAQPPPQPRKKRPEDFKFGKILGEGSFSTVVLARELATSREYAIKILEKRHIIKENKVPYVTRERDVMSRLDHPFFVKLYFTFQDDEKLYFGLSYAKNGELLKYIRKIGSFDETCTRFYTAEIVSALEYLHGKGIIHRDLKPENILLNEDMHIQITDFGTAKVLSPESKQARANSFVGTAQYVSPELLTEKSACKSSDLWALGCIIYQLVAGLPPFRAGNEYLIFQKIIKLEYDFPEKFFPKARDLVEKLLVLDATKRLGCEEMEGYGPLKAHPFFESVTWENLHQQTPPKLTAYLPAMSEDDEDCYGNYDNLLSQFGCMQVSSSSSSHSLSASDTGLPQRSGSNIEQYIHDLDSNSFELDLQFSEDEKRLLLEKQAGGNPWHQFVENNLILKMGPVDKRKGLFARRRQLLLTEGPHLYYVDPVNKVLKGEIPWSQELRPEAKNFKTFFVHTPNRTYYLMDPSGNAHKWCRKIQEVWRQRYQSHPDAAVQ
Experimental: as §1, §2

inhibition at 1 µM [1] [%]	inhibition at 1 µM [2] [%]	inhibition at 1 µM [3] [%]	inhibition at 1 µM [4] [%]	inhibition at 1 µM [5] [%]	inhibition at 1 µM [6] [%]	inhibition at 1 µM [7] [%]	inhibition at 1 µM [8] [%]	inhibition at 1 µM [9] [%]	inhibition at 1 µM [10] [%]	inhibition at 1 µM [11] [%]	inhibition at 1 µM [12] [%]	inhibition at 1 µM [13] [%]	SMILES	also measured
5.57	71.3	89.4	47.2	8.71	93.6	68.8	24.1	24.8	88.9	12.9	97.2	18.3	COc1ccc(-c2ccco2)cc1Nc1ncnc2[nH]nc(-c3ccco3)c12 [compound 2, 3-(furan-2-yl)-N-(5-(furan-2-yl)-2-methoxyphenyl)-1H-pyrazolo[3,4-d]pyrimidin-4-amine]	inhibition at 0.1 µM ([1]; compound at 100 nM): 1.24%; inhibition at 0.1 µM ([2]; compound at 100 nM): 27.3%; inhibition at 0.1 µM ([3]; compound at 100 nM): 60%; inhibition at 0.1 µM ([4]; compound at 100 nM): 9.95%; inhibition at 0.1 µM ([5]; compound at 100 nM): 4.08%; inhibition at 0.1 µM ([6]; compound at 100 nM): 74.2%; inhibition at 0.1 µM ([7]; compound at 100 nM): 20.5%; inhibition at 0.1 µM ([8]; compound at 100 nM): 3.45%; inhibition at 0.1 µM ([9]; compound at 100 nM): 6.96%; inhibition at 0.1 µM ([10]; compound at 100 nM): 63.2%; inhibition at 0.1 µM ([11]; compound at 100 nM): 2.69%; inhibition at 0.1 µM ([12]; compound at 100 nM): 95.2%; inhibition at 0.1 µM ([13]; compound at 100 nM): 4.58%
30	74	78	31	7	98	40	11	62	95	20	98	5	COc1ccc(-c2ccoc2)cc1Nc1ncnc2[nH]cc(-c3cc[nH]n3)c12 [compound 3, N-(5-(furan-3-yl)-2-methoxyphenyl)-5-(1H-pyrazol-3-yl)-7H-pyrrolo[2,3-d]pyrimidin-4-amine]	–
